Reference: US20070122907A1, “Orchid culturing method” (priority 2005, published 2007)

Legend:
[1] = tested on: Phalaenopsis plants; test: Induction of spiking in potted Phalaenopsis by spraying, number of inflorescences per plant; format: in vivo; conditions: spray 1000 ppm, 0.1% Zipper, 1% DMSO, 100 plants
Excerpt: Growing conditions for the plants throughout the whole greenhouse stay are the same, except for the above discussed variations in light and temperature. Preferably this means that the plants are potted in pots with a diameter of 10-20 cm, with a growing medium of bark, coconut, Styrofoam, sphagnum moss and turf. Preferably they are stored on table-high racks, which facilitates handling. Light intensity on the surface of the pot is 3000-15000 lux (see Schapendonlk, A.H.C.M., “Belichting Phalaenopsis”, PT-Project 12170, productverslag, Productschap Tuinbouw). Normal daylight is maintained, but preferably in wintertime a lights on:lights off regime of 14:10 hours is used. Watering is preferably automated and is taken care of by a sprinkler system or any other spraying system, an ebb and flow system, via gutters running along the racks, or by submerging the pots in a water basin Nutrients and/or fertiliser are added to the water on a regular basis (EC 0,5-2, NPK 20-20-20). See also ook “Cultivation Guidelines Phalaenopsis Pot Plants, supra.
In June 2004 three groups of Phalaenopsis plants have been induced 6 months after potting. For testing 100 plants were treated and 100 non-treated controls were used per variety. Both groups of plants were cultured as described above. […] The results in Table 1 show the number of inflorescences per plant for the different test groups.

[2] = tested on: Phalaenopsis; conditions: cited from earlier work
[3] = tested on: Dendrobium; conditions: application to the mature pseudobulbs, not the developing ones; cited from earlier work

Molecule `c1ccc(CNc2ncnc3nc[nH]c23)cc1` [6-BA-P, 6-benzylaminopurine] has an Average stemcount treated ([1]; variety Anthura Malaga, untreated 1.23) of 3.61, an Average stemcount treated ([1]; variety Brother John Red Delight, untreated 1.13) of 3.20 and an Average stemcount treated ([1]; variety Dutch Lady, untreated 1.58) of 3.84. It also gave an Average stemcount treated ([1]; variety Golden Treasure, untreated 1.44) of 2.97, an Average stemcount treated ([1]; variety Lippe Flair 344, untreated 1.32) of 3.38 and an Average stemcount treated ([1]; variety Maliby Leopard, untreated 1.51) of 3.12. For the same molecule, the “induction of off-season spiking” value [2] was “unable to induce off-season spiking” and the triggering of spiking [3] was “shown to trigger spiking”.
